ChEMBL document CHEMBL3352569, “Design, synthesis and structure-activity relationship studies of novel sirtuin 2 (SIRT2) inhibitors with a benzamide skeleton” (Bioorg Med Chem, 2015)

Legend:
[1] = biological target: T1, NAD-dependent protein deacetylase sirtuin-2 (Homo sapiens) (UniProt Q8IXJ6); test: Inhibition of GST-tagged human recombinant SIRT2 (34 to 356 residues) expressed in Escherichia coli BL21 at 10 uM using Fluor de Lys-SIRT as substrate incubated for 60 mins prior to substrate addition measured after 45 mins by fluorimetric analysis
T1 sequence (whole entry): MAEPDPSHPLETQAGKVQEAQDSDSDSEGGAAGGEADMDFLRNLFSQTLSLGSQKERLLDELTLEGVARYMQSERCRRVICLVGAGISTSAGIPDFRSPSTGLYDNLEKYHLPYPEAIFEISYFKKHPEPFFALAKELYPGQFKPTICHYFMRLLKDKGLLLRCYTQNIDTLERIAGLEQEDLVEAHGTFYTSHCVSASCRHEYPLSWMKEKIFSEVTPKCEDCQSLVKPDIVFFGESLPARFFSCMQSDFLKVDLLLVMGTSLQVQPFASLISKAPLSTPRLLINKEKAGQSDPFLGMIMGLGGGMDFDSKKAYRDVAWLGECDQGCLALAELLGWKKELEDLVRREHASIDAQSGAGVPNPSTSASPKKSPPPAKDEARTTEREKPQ

[2] = biological target: T1, NAD-dependent protein deacetylase sirtuin-2 (Homo sapiens); test: Inhibition of GST-tagged human recombinant SIRT2 (34 to 356 residues) expressed in Escherichia coli BL21 at 50 uM using Fluor de Lys-SIRT as substrate incubated for 60 mins prior to substrate addition measured after 45 mins by fluorimetric analysis
[3] = biological target: T2, NAD-dependent protein deacetylase sirtuin-2 (Homo sapiens, UniProt Q8IXJ6); test: Inhibition of GST-tagged human recombinant SIRT2 (34 to 356 residues) expressed in Escherichia coli BL21 using Fluor de Lys-SIRT as substrate incubated for 60 mins prior to substrate addition measured after 45 mins by fluorimetric analysis
T2 sequence (Q8IXJ6 whole entry): T1 sequence (whole entry)

[4] = biological target: T1, NAD-dependent protein deacetylase sirtuin-2 (Homo sapiens); settings: 25 uM
Description: Inhibition of human recombinant SIRT2 at 25 uM

[5] = biological target: T3, NAD-dependent protein deacetylase sirtuin-1 (Homo sapiens, UniProt Q96EB6); test: Inhibition of human SIRT1
T3 sequence (Q96EB6 whole entry): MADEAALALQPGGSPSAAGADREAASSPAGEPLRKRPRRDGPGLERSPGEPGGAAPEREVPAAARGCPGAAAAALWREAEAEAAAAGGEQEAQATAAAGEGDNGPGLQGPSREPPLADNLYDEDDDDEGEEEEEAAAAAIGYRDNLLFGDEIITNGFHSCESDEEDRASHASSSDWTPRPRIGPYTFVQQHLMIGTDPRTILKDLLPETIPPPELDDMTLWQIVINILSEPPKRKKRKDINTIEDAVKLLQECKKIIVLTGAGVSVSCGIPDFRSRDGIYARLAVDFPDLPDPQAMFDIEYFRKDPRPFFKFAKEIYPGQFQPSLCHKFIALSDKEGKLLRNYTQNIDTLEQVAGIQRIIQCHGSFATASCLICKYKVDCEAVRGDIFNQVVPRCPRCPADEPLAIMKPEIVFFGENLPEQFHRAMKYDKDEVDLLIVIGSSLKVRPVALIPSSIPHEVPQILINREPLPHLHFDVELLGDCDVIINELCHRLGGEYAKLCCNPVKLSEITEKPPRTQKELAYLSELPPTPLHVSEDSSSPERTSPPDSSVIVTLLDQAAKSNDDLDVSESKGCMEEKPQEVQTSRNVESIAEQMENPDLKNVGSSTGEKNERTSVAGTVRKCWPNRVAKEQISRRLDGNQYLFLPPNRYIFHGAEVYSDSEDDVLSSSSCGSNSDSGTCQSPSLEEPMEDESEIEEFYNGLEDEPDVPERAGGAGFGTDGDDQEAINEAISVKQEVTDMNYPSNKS

[6] = biological target: T4, NAD-dependent protein deacetylase sirtuin-3, mitochondrial (Homo sapiens, UniProt Q9NTG7); test: Inhibition of human SIRT3
T4 sequence (Q9NTG7 whole entry): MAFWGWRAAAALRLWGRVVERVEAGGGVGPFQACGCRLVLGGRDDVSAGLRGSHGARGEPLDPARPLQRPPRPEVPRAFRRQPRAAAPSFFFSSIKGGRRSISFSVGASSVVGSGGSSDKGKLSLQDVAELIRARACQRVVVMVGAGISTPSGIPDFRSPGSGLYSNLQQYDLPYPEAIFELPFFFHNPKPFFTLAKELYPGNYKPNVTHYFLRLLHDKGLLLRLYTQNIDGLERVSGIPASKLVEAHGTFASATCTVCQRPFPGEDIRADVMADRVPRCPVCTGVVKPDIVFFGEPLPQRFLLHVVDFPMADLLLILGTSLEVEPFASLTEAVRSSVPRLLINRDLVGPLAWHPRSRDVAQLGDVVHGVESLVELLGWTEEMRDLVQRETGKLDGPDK

[7] = biological target: T3, NAD-dependent protein deacetylase sirtuin-1; test: Inhibition of human recombinant SIRT1 using Fluor de Lys-SIRT as substrate incubated for 60 mins prior to substrate addition measured after 45 mins by fluorimetric analysis
[8] = biological target: T4, NAD-dependent protein deacetylase sirtuin-3, mitochondrial; test: Inhibition of human recombinant SIRT3 using Fluor de Lys-SIRT as substrate incubated for 60 mins prior to substrate addition measured after 45 mins by fluorimetric analysis

| Compound | inhibition [1] | inhibition [2] | IC50 [3] | further results |
| --- | --- | --- | --- | --- |
| COc1ccccc1NC(=O)c1cccc(-c2ccc3ccccc3c2)c1 | 51% | 89% | 11 µM | – |
| O=C(Nc1cccc(NC(=O)c2ccccc2Br)c1)c1ccccc1Br | 3% | 49% | – | – |
| O=C(Nc1ccccc1Br)c1cccc(-c2ccc3ccccc3c2)c1 | 64% | 95% | 5.3 µM | – |
| O=C(Nc1nccs1)c1cccc(-c2ccc3ccccc3c2)c1 | – | – | 12 µM | – |
| O=C(Nc1ccncc1)c1cccc(-c2ccc3ccccc3c2)c1 | – | – | 16 µM | – |
| COc1ccccc1C(=O)Nc1cccc(NC(=O)c2cccc(Br)c2)c1 | 11% | 39% | – | – |
| CC(C(=O)Nc1cccc(/N=C/c2c(O)ccc3ccccc23)c1)c1ccccc1 (centres undefined) | – | – | – | inhibition [4]: 80% |
| COc1cccc(NC(=O)c2cccc(-c3ccc4ccccc4c3)c2)c1 | 29% | 66% | – | – |
| O=C(Nc1cccc(-c2ccc3ccccc3c2)c1)c1ccccc1Br | 39% | 56% | – | – |
| O=C(Nc1ccccc1)c1cccc(-c2ccc3ccccc3c2)c1 | 21% | 14% | – | – |
| O=C(Nc1cccnn1)c1cccc(-c2ccc3ccccc3c2)c1 | – | – | 0.9 µM | – |
| O=C(Nc1ccccn1)c1cccc(-c2ccc3ccccc3c2)c1 | – | – | 22 µM | – |
| COc1ccc(C(=O)Nc2cccc(NC(=O)c3cccc(Br)c3)c2)cc1 | 4% | 0% | – | – |
| Cc1cccc(C(=O)Nc2cccc(NC(=O)c3ccccc3Br)c2)c1 | 18% | 24% | – | – |
| O=C(Nc1cccc(NC(=O)c2cc(C(F)(F)F)cc(C(F)(F)F)c2)c1)c1cccc(Br)c1 | 3% | 12% | – | – |
| O=C(Nc1cccc(NC(=O)c2cccc(Br)c2)c1)c1cc(Cl)cc(Cl)c1 | 0% | 10% | – | – |
| Nc1ccccc1NC(=O)c1cccc(-c2ccc3ccccc3c2)c1 | 22% | 29% | – | – |
| O=C(Nc1nc[nH]n1)c1cccc(-c2ccc3ccccc3c2)c1 | – | – | 57 µM | – |
| O=C(Nc1cccc(Br)c1)c1cccc(S(=O)(=O)N2CCCCCC2)c1 | – | – | – | IC50 [5]: > 50 µM; IC50 [6]: > 50 µM |
| O=C(Nc1cccc(Br)c1)c1cccc(-c2ccc3ccccc3c2)c1 | 23% | 46% | – | – |

| Compound | inhibition [1] | inhibition [2] | IC50 [3] | further results |
| --- | --- | --- | --- | --- |
| COc1ccccc1C(=O)Nc1cccc(-c2ccc3ccccc3c2)c1 | 10% | 47% | – | – |
| O=C(Nc1cc[nH]n1)c1cccc(-c2ccc3ccccc3c2)c1 | – | – | 42 µM | – |
| COc1ccc(C(=O)Nc2cccc(NC(=O)c3ccccc3Br)c2)cc1 | 10% | 31% | – | – |
| O=C(Nc1cccc(-c2ccc3ccccc3c2)c1)c1cccc(Br)c1 | 19% | 43% | – | – |
| O=C(Nc1ccccc1[N+](=O)[O-])c1cccc(-c2ccc3ccccc3c2)c1 | 30% | 76% | – | – |
| O=C(Nc1cccc(NC(=O)c2ccccc2Br)c1)c1cccc(Br)c1 | 0% | 19% | – | – |
| O=C(Nc1cnccc1Br)c1cccc(-c2ccc3ccccc3c2)c1 | – | – | 0.6 µM | IC50 [7]: > 100 µM; IC50 [8]: > 100 µM |
| O=C(Nc1cccc(NC(=O)c2cccc(Br)c2)c1)c1cccc(Br)c1 | 7% | 12% | – | – |
| O=C(Nc1cccnc1)c1cccc(-c2ccc3ccccc3c2)c1 | – | – | 3.3 µM | – |
| COc1ccccc1C(=O)Nc1cccc(NC(=O)c2ccccc2Br)c1 | 10% | 28% | – | – |
| COc1cccc(C(=O)Nc2cccc(NC(=O)c3ccccc3Br)c2)c1 | 4% | 19% | – | – |
| Cc1ccccc1C(=O)Nc1cccc(NC(=O)c2ccccc2Br)c1 | 1% | 0% | – | – |
| O=C(Nc1ccnnc1)c1cccc(-c2ccc3ccccc3c2)c1 | – | – | 6.3 µM | – |
| O=C(Nc1cccc(NC(=O)c2ccccc2Br)c1)c1ccccc1 | 8% | 28% | – | – |
| O=C(Nc1cccc(NC(=O)c2ccccc2)c1)c1ccccc1 | 3% | 10% | – | – |
| COc1cccc(C(=O)Nc2cccc(-c3ccc4ccccc4c3)c2)c1 | 8% | 44% | – | – |
| N#C/C(=C\c1ccc(-c2cc(Cl)ccc2Cl)o1)C(=O)Nc1cccc2ncccc12 | – | – | – | IC50 [5]: > 50 µM |
| O=C(Nc1cnccn1)c1cccc(-c2ccc3ccccc3c2)c1 | – | – | 6.2 µM | – |
| O=C(Nc1ncccn1)c1cccc(-c2ccc3ccccc3c2)c1 | – | – | 13 µM | – |
